Results reported in paper PMC12531871, “Indole-2-carboxamides Optimization for Antiplasmodial Activity” (ACS Bio & Med Chem Au, 2025).
In brackets after ≈: the same amount, converted by molar mass. Read-outs that look alike come from different tables or passages of the source.

Key:
[1] = test system: P. falciparum RF12 strain; assay: Antiplasmodial activity against resistant P. falciparum RF12; assay type: cell-based; conditions: Plasmodium falciparum, read-out: IC50 ± SD, RF12
[2] = test system: P. falciparum field isolates from Brazil; assay: Ex vivo drug susceptibility of P. falciparum field isolates; assay type: cell-based, Plasmodium falciparum
[3] = test system: P. falciparum 3D7 strain (Pf3D7); assay: Antiplasmodial activity against P. falciparum 3D7 blood-stage parasites (SYBR Green, 72 h); assay type: cell-based, Plasmodium falciparum; conditions: Plasmodium falciparum
Rat hepatocyte stability = assay type: in vitro ADME; conditions: rat hepatocyte stability
Method: The reaction was terminated with the addition of ice-cold MeCN at designated time points. The samples were then centrifuged (4200 rpm) for 20 min at 20 °C, and the supernatant was half diluted in water and then analyzed using LCMS/MS. The % parent compound remaining, half-life (t 1/2), and clearance (CLint) were calculated using standard methodology. The experiment was carried out in duplicate. Diltiazem, 7-Ethoxy Coumarin, Propranolol, and Midazolam were used as reference standards.

P. falciparum K1 strain = assay: Antiplasmodial activity against resistant P. falciparum K1; assay type: cell-based; conditions: Plasmodium falciparum
[4] = test system: P. falciparum 3D7 (chloroquine-sensitive); assay: Effect of verapamil on inhibitory activity in P. falciparum 3D7; assay type: cell-based; conditions: Plasmodium falciparum
[5] = test system: P. falciparum NF54 strain; assay: Antiplasmodial activity against P. falciparum NF54 (SYBR Green, 72 h); assay type: cell-based, Plasmodium falciparum; conditions: Plasmodium falciparum, NF54, drug-sensitive NF54, strain panel; read-out: IC50 ± SD, NF54
[6] = test system: P. falciparum Dd2 (chloroquine resistance); assay: Effect of verapamil on inhibitory activity in P. falciparum Dd2; assay type: cell-based; conditions: Plasmodium falciparum; Dd2, absence of verapamil; read-out: IC50^Dd2 (without VP)
P. falciparum 3D7 clone = assay: Ex vivo schizont maturation assay, 3D7 laboratory strain control; assay type: cell-based; conditions: Plasmodium falciparum, ex vivo assay conditions
[7] = Kinetic solubility at pH 7.4; assay type: physicochemical; conditions: phosphate-buffered saline, 25 °C, pH 7.4, aqueous buffer, kinetic from dmso stock; read-out: Kinetic solubility (Sol)
Method: Kinetic solubility assay was performed using UV–vis detection. […] The samples were filtered using a multiscreen solubility filter plate. The filtrate was diluted by 50% with MeCN. A five-point linearity curve was prepared in PBS/MeCN (1:1, v/v) at 200, 150, 75, 25, and 2.5 μM. Blank, linearity, and test samples (n = 2) were transferred to a UV-readable plate, and the plate was scanned for absorbance. Best-fit calibration curves were constructed using the calibration standards and used to determine the test sample solubility. The experiment was carried out in duplicate. Diethylstilbestrol, Haloperidol, and Diclofenac Sodium were used as reference standards.

[8] = test system: P. falciparum (3D7 strain) digestive vacuole; assay: Digestive vacuole homeostasis, acridine orange fluorescence; assay type: cell-based, Plasmodium falciparum; conditions: 10 μM, 3 min treatment, isolated parasites
Method: The sample was incubated for 40 min at 37 °C. […] Fluorescence was measured in a Hitachi F-7000 fluorimeter (Tokyo, Japan) by continuous measurement of the fluorescence (λex = 488 nm; λem = 560 nm) at 37 °C. Experiments were performed in triplicate.

[9] = test system: female P. falciparum gametocytes; assay: P. falciparum dual gamete formation assay (Pf DGFA), female gametocytes; assay type: cell-based; conditions: Plasmodium falciparum, read-out: inhibition against female gametocytes
[10] = test system: male P. falciparum gametocytes; assay: P. falciparum dual gamete formation assay (Pf DGFA), male gametocytes; assay type: cell-based; conditions: Plasmodium falciparum, read-out: inhibition against male gametocytes
[11] = Human liver microsome stability; assay type: in vitro ADME; conditions: human, pooled human liver microsomes, human microsomal intrinsic clearance; read-out: hMics, human microsome Clint
Method: A solution of the test compounds in phosphate buffer solution (1 μM) was incubated in pooled human or mouse liver microsomes (0.5 mg/mL) for 0, 5, 20, 30, 45, and 60 min at 37 °C in the presence and absence of an NADPH regeneration system (NRS). The tests were conducted by […], India. The reaction was terminated with the addition of ice-cold acetonitrile, containing a […] standard, at designated time points. The sample was centrifuged (4200g) for 20 min at 20 °C and the supernatant was diluted by half in water and then analyzed by LC-MS/MS. The % parent compound remaining, half-life (t 1/2) and clearance (CLint) were calculated using standard methodology. The experiment was carried out in duplicate. Verapamil, diltiazem, phenacetin, and imipramine were used as reference standards.

P. falciparum 7G8 strain = assay: Antiplasmodial activity against resistant P. falciparum 7G8; assay type: cell-based; conditions: Plasmodium falciparum; resistant strain 7G8; read-out: IC50 ± SD, 7G8
P. falciparum Dd2 strain = assay: Antiplasmodial activity against resistant P. falciparum Dd2; assay type: cell-based; conditions: Plasmodium falciparum
[12] = eLogD at pH 7.4, miniaturized shake flask method; assay type: physicochemical; conditions: 1-octanol/PBS (1:1, v/v), pH 7.4, pH 7.4, miniaturized shake flask method
Method: eLogD at pH 7.4 was determined using a miniaturized shake flask method. A solution of a presaturated mixture of 1-octanol and phosphate-buffered saline (PBS) (1:1, v/v) and the test compound (75 μM) was incubated at 25 °C with constant shaking (850 rpm) for 2h. After incubation, the organic and aqueous phases were separated, and samples of each phase were transferred to a plate for dilution. […] The samples were quantitated using LC-MS/MS. The experiment was carried out in duplicate. Propranolol, Amitriptyline, and Midazolam were used as reference standards.

[13] = test system: P. vivax field isolates from Brazil; assay: Ex vivo drug susceptibility of P. vivax field isolates; assay type: cell-based; conditions: Plasmodium vivax, ex vivo
[14] = test system: P. falciparum TM90-2CB strain; assay: Antiplasmodial activity against resistant P. falciparum TM90-2CB; assay type: cell-based; conditions: Plasmodium falciparum; resistant strain TM90-2CB; read-out: IC50 ± SD, TM90-2CB
[15] = test system: synchronized P. falciparum parasites (3D7 strain); assay: P. falciparum asexual blood stage-specificity assay (8 h exposures); assay type: cell-based, Plasmodium falciparum
[16] = Resazurin assay for cytotoxicity in HepG2 cells; assay type: cell-based, human; conditions: human, HepG2 cells; HepG2 cell line, 72 h, resazurin
Method: HepG2 cells were trypsinized, counted, and distributed in a 96-well plate at a density of 30,000 cells per well (180 μL). The plate was incubated at 37 °C and 5% CO2 for 24 h. Following incubation, 20 μL of serial dilutions of the tested compounds were added to the wells, with concentrations ranging from 30 to 0.47 μM. The plate was incubated for an additional 72 h at 37 °C and 5% CO2. Untreated cells served as positive controls, while wells containing only medium were used as negative controls. Postincubation, microscopy was employed to determine the highest compound concentration for treatment results. […] Concentration–response curves were generated, and half-maximal inhibitory concentration (CC50) values were determined using nonlinear regression analysis.

O=C(c1cc2cc(C(F)(F)F)ccc2[nH]1)N(Cc1cccnc1)CC1CCNC1 (stereo not shown) [Compound 6f, N-(3-Pyridylmethyl)-N-(pyrrolidin-3-ylmethyl)-5-(trifluoromethyl)-1H-indole-2-carboxamide]
IC50 [1]: 2000 ± 300 nM
IC50 ([2]; Plasmodium falciparum, 7 clinical isolates, ex vivo, read-out: median IC50 (range), P. falciparum (7)): > 10000 nM
activity against P. falciparum field isolates ([2]; concentration of 10 μM): inactive
IC50 ([3]; 3D7, 72 h, 3D7 strain, 72 h, SYBR Green, read-out: Pf3D7-IC50): 400 ± 100 nM
IC50 ([3]; 3D7, drug-sensitive 3D7, strain panel, read-out: IC50 ± SD, 3D7): 400 ± 100 nM
IC50 ([3]; 3D7 / DD2, sensitive 3D7, in parallel with K1 and Dd2, read-out: IC50^3D7 ± SD): 400 ± 200 nM
R Heps (Clint) (Rat hepatocyte stability): 2.6 μL/min/10^6
IC50 (P. falciparum K1 strain; 3D7 / K1, resistant K1, in parallel with 3D7, read-out: IC50^K1 ± SD): 4500 ± 200 nM
IC50 (P. falciparum K1 strain; resistant strain K1, strain panel, read-out: IC50 ± SD, K1): 7300 ± 200 nM
IC50 ([4]; 3D7, verapamil experiment, read-out: IC50 in 3D7 strain): ~200 nM
IC50 ([4]; read-out: IC50^3D7 (10 μM VP), 3D7, presence of 10 μM verapamil): 460 nM
IC50 ([4]; 3D7, absence of verapamil, read-out: IC50^3D7 (without VP)): 196 nM
IC50 [5]: 370 ± 60 nM
IC50 [6]: 4030 nM
EC50 (P. falciparum 3D7 clone; 3D7, read-out: EC50 against the P. falciparum 3D7 clone): 363 nM
IC50 (P. falciparum 3D7 clone; 3D7 control, read-out: P. falciparum 3D7 IC50): 363 nM
solubility kinetic at 2 h [7]: 195 µM (≈ 78.5 µg/mL)
effect on digestive vacuole H+ homeostasis (acridine orange fluorescence) [8]: interferes with proton (H^+) homeostasis
inhibition at 1 µM [9]: 7%
inhibition at 1 µM [10]: 28%
microsomal CLint at 1 μM [11]: 11 µL/min/mg
IC50 (P. falciparum 7G8 strain): 1800 ± 300 nM
IC50 (P. falciparum Dd2 strain; 3D7 / DD2, resistant Dd2, in parallel with 3D7, read-out: IC50^Dd2 ± SD): > 10000 nM
IC50 (P. falciparum Dd2 strain; resistant strain Dd2, strain panel, read-out: IC50 ± SD, Dd2): 2600 ± 400 nM
logD at 2 h [12]: 1.1
IC50 ([13]; 9 clinical isolates, read-out: median IC50 (range), P. vivax (9)): 698 nM
EC50 ([13]; read-out: median EC50 against P. vivax field isolates): 698 nM
EC50 ([13]; read-out: range of EC50 across individual P. vivax isolates): 636 to 910 nM
IC50 [14]: 2800 ± 500 nM
timing of peak activity (lowest IC50^8h) in asexual blood stages [15]: increased potency on the early ring forms
CC50 at 72 h [16]: > 30000 nM
